Data set [1] relates to Murine melanoma B16 4A5 cells. In words: Cell cycle by FACScan analysis. In kind it is cell-based. The procedure: (§1) Murine melanoma B16 4A5 and B16 F10 cells were treated with taurolidine (0-200 μg/ml), X-ray (Roentgen) radiation (0-4 Gy), or their combination for different time points. Cell cycle was assessed by FACScan analysis. Cell apoptosis and necrosis were determined by FACScan analysis and MTT assay, and further confirmed by DNA gel electrophoresis.

The subject of data set [2] is Murine melanoma B16 F10 cells. The data set is described as follows: Cell cycle by FACScan analysis. The data set is classed as cell-based. The procedure: as §1
Data set [3] relates to Murine melanoma B16 4A5 cells. The data set is described as follows: Cell apoptosis and necrosis by FACScan analysis, MTT assay, DNA gel electrophoresis. In kind it is cell-based. How it is done:
as §1
A general note: Tetrazolium dyes change colour on reduction, which living cells bring about.

The test system of data set [4] is Murine melanoma B16 F10 cells. Described as above. In kind it is cell-based. The settings on record: taurolidine 10-200 μg/ml. The procedure:
as §1

Data set [5] relates to B16 4A5 cells. In words: Melanoma tumour growth in vivo, B16 4A5 cells injected into right flank. Set-up: species or system C57BL/6 mice. How it is done:
C57BL/6 mice (8-10 week old) (n=120) were injected with B16 4A5 cells (5×10^5 per mouse) into the right flank and divided into control, PVP (solvent for taurolidine), taurolidine (5 mg/mouse, i.p), radiation (5 Gy/mouse), and taurolidine plus radiation. Tumour growth rate, tumour/body weight ratio, lung metastases, and survival rate were recorded. Intra-tumour cell mitosis/apoptosis index, microvessel desity, and splenic cytotoxic T-lymphocyte (CTL) and nature killer (NK) cell-mediated cytotoxic activity were also accessed.

A short description of data set [6]: Evaluation of crystalline taurolidine powder after sterilisation by gamma-radiation. In kind it is physicochemical. How it is done: Two batches of normal crystalline taurolidine powder were produced and sterilised by gamma-radiation. The taurolidine crystals 0.5 g were weighed into 5 ml vials under sterile conditions and laminar flow. The vials were closed by rubber stoppers and seal caps. The closed vials were then radiated with gamma rays of 25 kGy (Range certification 26-30 kGy) and subsequently analysed.

A short description of data set [7]: Gamma irradiation of aqueous 1% taurolidine solution, radiolysis products. In kind it is physicochemical. The settings on record: approx. 25 gKy, aqueous 1% solution in 500 ml glass bottles. How it is done:
Examination of an aqueous 1% taurolidine solution for radiolysis products. After γ-irradiation (approx. 25 gKy) of a 1% taurolidine solution contained in 500 ml glass bottles the following products can be isolated, or quantitatively determined by means of IR spectroscopy, HPLC/MS analysis, amino acid analysis: […]

[8] abbreviates: taurolidine alone, 0-200 μg/ml, different time points.
The mark [9] stands for this setting: taurolidine in combination with X-ray radiation (0-4 Gy).
The mark [10] stands for this setting: taurolidine 5 mg/mouse i.p. plus radiation 5 Gy/mouse.
Where [11] appears, read: taurolidine 5 mg/mouse i.p. plus radiation 5 Gy/mouse vs taurolidine alone (p<0.01) or radiation alone (p<0.01).

With `O=S1(=O)CCN(CN2CCS(=O)(=O)NC2)CN1` [taurolidine], the cell cycle result is “cell cycle at G0/G1 phase with an enhanced sub-G1 population in a dose- and time-dependent manner” in data set [1] (setting [8]); “cell cycle arrest at G2/M phase with absence of sub-G1 population” in data set [1] (setting [9]); “cell cycle at G0/G1 phase with an enhanced sub-G1 population in a dose- and time-dependent manner” in data set [2] (setting [8]); “cell cycle arrest at G2/M phase with absence of sub-G1 population” in data set [2] (setting [9]). The apoptosis entry in data set [3] (25 μg/ml taurolidine alone) is “failed to induce apoptosis”; in data set [3] (25 μg/ml taurolidine in combination with 0.5 Gy radiation) it was 70%. Also, the cell apoptosis result was “dose- and time-dependent cell apoptosis” in data set [3] (taurolidine 10-200 μg/ml); “dose- and time-dependent cell apoptosis” in data set [4]. For the same compound, the “nature killer (NK) cell cytotoxic activity” value in data set [5] (setting [10]) was “enhanced”. Moreover, in data set [5] (setting [10]), the “splenic cytotoxic T-lymphocyte (CTL) cytotoxic activity” value is reported as “enhanced”. The survival entry in data set [5] (setting [10]) is given as “improved survival”. In addition, the lung metastatic nodules entry in data set [5] (setting [11]) was “greater reduction”. For the same compound, the tumour growth rate entry in data set [5] (setting [11]) was “greater reduction”. The tumour/body weight ratio entry in data set [5] (setting [11]) was “greater reduction”. In data set [5] (taurolidine 5 mg/mouse i.p. plus radiation 5 Gy/mouse, compared to untreated animals (p<0.001)), the “primary and metastatic melanoma tumour growth” value is “significantly attenuated”. In addition, the “intra-tumour cell mitosis/apoptosis index” value in data set [5] (taurolidine plus radiation group) is listed as “significant decreased”. Moreover, in data set [6], the Solubility was 1%. For the same compound, in data set [6], the “evaluation of stability after sterilization by gamma radiation” value is “identical with non-radiated crystals”. In addition, in data set [6] (crystalline powder after gamma rays of 25 kGy), the Endotoxins result is “negative”. For the same compound, the “amount after γ-irradiation of a 1% taurolidine solution” value in data set [7] was 3,900 mg. The “content after γ-irradiation of a 1% taurolidine solution” value in data set [7] (IR, HPLC/MS, amino acid analysis) is given as 0.78%.

Source of the values: patent publication US7928102B2, “Irradiated compositions and treatment of cancers with radiation in combination with taurolidine and/or taurultam” (Ed. Geistlich Soehne AG fuer Chemische Industrie, priority 2006, dated 2011).
